ChEMBL document CHEMBL1201862, “PubChem BioAssay data set” (2004)
One block for each compound: values may come before it. Active and inactive are the calls of the source.

Columns and labels:
Type in all cases: functional
[1] = molecular target: cAMP-dependent protein kinase catalytic subunit alpha (Homo sapiens, UniProt P17612)
[2] = molecular target: Glycogen synthase kinase-3 beta (Homo sapiens, UniProt P49841);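 note: value comes from a broad kinome profiling panel, with GSK3B as the panel member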
[3] = molecular target: Cell division cycle 7-related protein kinase (Homo sapiens, UniProt O00311);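 note: value obtained from a kinome-wide kinase panel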
[4] = molecular target: Homeodomain-interacting protein kinase 2 (Homo sapiens, UniProt Q9H2X6);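 note: measured within a kinome-wide kinase profiling panel, HIPK2 being one panel member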
[5] = molecular target: Cyclin-dependent kinase 7 (Homo sapiens, UniProt P50613);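 note: value comes from a kinome-wide kinase profiling panel in which CDK7 is one member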
[6] = molecular target: T1, Interleukin-1 receptor-associated kinase 4 (Homo sapiens, UniProt Q9NWZ3)
T1 sequence (Q9NWZ3 whole entry): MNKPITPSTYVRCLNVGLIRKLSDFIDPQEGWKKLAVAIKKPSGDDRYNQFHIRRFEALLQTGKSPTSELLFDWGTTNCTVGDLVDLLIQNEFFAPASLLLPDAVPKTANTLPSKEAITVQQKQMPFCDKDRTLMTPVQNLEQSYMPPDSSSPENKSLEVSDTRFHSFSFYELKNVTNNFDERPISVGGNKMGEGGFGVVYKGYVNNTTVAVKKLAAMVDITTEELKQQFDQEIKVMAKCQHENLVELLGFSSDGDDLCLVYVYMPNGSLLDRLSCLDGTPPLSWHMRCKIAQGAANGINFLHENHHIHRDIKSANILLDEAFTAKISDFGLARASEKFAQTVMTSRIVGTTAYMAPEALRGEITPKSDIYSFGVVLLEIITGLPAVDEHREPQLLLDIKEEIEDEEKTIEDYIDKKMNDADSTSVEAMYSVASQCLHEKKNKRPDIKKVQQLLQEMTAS

[7] = molecular target: Cyclin-dependent kinase 9 (Homo sapiens, UniProt P50750);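 note: value from the CDK9 entry of a kinome-spanning kinase panel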
[8] = molecular target: Serine/threonine-protein kinase pim-1 (Homo sapiens, UniProt P11309)
[9] = molecular target: Tyrosine-protein kinase JAK3 (Homo sapiens, UniProt P52333)
[10] = molecular target: Mitogen-activated protein kinase 8 (Homo sapiens, UniProt P45983);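 note: value comes from one member of a kinome-wide kinase profiling panel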
[11] = molecular target: Serine/threonine-protein kinase PAK 4 (Homo sapiens, UniProt O96013);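 note: value obtained within a kinome profiling panel in which PAK4 was one of the panel members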
Activin receptor type-1 = Activin receptor type-1 (Homo sapiens, UniProt Q04771); experiment: Navigating the Kinome. Panel member name: ACVR1
[12] = molecular target: Tyrosine-protein kinase Fyn (Homo sapiens, UniProt P06241)
[13] = molecular target: Glycogen synthase kinase-3 alpha (Homo sapiens, UniProt P49840);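 note: GSK3A result taken from a broad kinome-wide kinase panel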
[14] = molecular target: Death-associated protein kinase 3 (Homo sapiens, UniProt O43293);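 note: measured as one member of a kinome-wide profiling panel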
[15] = molecular target: ALK tyrosine kinase receptor (Homo sapiens, UniProt Q9UM73);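 note: ALK tested as one member of a kinase panel screen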
[16] = molecular target: Macrophage-stimulating protein receptor (Homo sapiens, UniProt Q04912); experiment: Navigating the Kinome. Panel member name: MST1R
[17] = molecular target: Serine/threonine-protein kinase TAO1 (Homo sapiens, UniProt Q7L7X3)
[18] = molecular target: Calcium/calmodulin-dependent protein kinase type II subunit alpha (Homo sapiens, UniProt Q9UQM7); experiment: Navigating the Kinome. Panel member name: CAMK2A
[19] = molecular target: Mitogen-activated protein kinase kinase kinase kinase 4 (Homo sapiens, UniProt O95819)
[20] = molecular target: G protein-coupled receptor kinase 5 (Homo sapiens, UniProt P34947); experiment: Navigating the Kinome. Panel member name: GPRK5
G protein-coupled receptor kinase 5, sequence (P34947 whole entry): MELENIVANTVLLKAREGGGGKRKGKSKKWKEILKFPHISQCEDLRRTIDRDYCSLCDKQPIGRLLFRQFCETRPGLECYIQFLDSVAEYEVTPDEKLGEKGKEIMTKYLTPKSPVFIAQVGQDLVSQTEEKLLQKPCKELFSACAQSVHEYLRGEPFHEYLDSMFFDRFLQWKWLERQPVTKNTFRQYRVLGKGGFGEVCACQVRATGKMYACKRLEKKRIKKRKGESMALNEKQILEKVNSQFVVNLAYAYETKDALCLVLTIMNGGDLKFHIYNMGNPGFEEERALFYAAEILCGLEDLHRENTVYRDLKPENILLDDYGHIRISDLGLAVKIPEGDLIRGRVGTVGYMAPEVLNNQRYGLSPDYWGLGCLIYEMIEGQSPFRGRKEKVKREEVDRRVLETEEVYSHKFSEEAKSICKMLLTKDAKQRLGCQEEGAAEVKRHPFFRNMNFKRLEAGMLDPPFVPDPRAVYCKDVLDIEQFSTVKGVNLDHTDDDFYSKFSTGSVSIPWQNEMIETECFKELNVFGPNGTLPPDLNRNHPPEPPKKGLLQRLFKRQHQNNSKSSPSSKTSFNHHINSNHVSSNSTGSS

Serine/threonine-protein kinase pim-1, sequence (P11309 whole entry): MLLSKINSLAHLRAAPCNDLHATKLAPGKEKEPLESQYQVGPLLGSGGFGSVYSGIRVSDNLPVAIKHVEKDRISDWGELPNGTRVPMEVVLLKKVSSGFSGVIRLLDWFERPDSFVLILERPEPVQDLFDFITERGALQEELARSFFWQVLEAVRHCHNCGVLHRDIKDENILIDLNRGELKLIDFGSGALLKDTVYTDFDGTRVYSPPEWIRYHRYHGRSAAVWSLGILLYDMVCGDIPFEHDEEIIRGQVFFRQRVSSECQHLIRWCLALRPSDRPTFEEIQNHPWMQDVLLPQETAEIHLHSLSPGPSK
Cyclin-dependent kinase 7, sequence (P50613 whole entry): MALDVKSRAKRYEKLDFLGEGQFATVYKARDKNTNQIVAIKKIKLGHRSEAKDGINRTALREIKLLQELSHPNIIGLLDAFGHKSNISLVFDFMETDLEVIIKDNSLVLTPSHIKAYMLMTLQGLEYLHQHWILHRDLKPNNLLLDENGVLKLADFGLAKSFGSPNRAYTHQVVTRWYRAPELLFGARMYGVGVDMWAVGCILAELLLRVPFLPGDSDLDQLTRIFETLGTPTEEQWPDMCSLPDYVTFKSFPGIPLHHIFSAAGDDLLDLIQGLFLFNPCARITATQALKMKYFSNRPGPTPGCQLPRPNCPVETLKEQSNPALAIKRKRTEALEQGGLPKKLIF
Serine/threonine-protein kinase TAO1, sequence (Q7L7X3 whole entry): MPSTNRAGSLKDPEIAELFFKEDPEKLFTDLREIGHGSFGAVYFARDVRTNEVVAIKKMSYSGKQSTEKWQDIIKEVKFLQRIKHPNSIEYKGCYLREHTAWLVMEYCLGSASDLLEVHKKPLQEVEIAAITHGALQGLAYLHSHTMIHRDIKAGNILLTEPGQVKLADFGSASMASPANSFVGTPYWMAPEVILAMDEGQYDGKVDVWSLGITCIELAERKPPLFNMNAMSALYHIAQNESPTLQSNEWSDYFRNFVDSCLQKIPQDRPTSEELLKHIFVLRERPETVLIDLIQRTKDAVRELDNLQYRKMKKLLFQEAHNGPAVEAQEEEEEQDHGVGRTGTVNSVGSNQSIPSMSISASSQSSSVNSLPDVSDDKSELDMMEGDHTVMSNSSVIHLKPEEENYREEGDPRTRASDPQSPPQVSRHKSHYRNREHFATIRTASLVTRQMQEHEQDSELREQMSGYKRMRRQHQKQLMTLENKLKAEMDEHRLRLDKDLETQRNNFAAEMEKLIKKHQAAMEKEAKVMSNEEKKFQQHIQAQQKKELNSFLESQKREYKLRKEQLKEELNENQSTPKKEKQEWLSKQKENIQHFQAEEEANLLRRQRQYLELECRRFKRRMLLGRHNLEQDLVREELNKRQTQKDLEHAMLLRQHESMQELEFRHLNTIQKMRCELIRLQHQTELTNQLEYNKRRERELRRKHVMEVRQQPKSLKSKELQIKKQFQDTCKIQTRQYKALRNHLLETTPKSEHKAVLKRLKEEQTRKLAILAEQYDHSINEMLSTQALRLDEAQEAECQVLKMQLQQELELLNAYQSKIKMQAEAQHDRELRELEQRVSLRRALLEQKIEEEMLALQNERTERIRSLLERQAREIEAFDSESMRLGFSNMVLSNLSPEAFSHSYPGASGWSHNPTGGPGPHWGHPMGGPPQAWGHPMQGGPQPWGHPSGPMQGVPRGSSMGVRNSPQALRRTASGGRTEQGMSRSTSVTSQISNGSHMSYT
Serine/threonine-protein kinase PAK 4, sequence (O96013 whole entry): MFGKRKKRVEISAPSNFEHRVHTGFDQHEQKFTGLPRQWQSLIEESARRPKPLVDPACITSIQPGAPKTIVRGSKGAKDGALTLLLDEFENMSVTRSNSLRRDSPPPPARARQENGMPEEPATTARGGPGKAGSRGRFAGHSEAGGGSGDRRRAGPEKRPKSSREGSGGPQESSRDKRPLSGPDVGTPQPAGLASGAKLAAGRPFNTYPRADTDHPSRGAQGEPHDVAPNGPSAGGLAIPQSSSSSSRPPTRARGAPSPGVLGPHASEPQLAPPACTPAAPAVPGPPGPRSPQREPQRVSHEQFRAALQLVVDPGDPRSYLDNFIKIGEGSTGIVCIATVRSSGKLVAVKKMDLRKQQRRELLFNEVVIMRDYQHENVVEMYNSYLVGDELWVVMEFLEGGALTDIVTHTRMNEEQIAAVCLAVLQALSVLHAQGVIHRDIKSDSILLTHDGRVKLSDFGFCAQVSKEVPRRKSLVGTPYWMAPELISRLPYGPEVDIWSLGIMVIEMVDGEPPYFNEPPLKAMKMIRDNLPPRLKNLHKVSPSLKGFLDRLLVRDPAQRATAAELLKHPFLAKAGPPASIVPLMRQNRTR
Cell division cycle 7-related protein kinase, sequence (O00311 whole entry): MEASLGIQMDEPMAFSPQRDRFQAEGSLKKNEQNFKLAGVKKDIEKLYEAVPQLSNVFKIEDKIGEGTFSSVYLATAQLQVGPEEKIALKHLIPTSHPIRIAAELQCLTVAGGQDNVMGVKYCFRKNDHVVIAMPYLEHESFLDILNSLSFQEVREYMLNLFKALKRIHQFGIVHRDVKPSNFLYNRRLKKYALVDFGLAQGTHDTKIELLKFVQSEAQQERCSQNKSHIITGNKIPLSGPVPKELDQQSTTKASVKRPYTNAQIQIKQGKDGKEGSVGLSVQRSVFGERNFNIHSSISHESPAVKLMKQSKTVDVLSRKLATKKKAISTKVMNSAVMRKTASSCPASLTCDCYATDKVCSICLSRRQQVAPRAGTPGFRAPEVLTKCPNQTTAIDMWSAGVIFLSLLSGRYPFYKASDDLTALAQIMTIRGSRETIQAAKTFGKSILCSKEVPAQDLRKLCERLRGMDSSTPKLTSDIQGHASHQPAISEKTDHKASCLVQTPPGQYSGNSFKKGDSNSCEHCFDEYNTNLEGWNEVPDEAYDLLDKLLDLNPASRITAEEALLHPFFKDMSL
Cyclin-dependent kinase 9, sequence (P50750 whole entry): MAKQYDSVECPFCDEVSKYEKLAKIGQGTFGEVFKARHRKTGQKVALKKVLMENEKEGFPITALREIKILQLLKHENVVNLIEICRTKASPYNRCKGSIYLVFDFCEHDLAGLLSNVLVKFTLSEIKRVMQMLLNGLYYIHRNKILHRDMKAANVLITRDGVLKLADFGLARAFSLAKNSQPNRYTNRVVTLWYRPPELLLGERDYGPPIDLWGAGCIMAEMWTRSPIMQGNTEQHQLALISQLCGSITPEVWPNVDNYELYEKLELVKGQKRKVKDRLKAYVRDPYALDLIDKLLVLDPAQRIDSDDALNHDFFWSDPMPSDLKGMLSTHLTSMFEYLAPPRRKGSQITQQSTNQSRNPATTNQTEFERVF
Glycogen synthase kinase-3 beta, sequence (P49841 whole entry): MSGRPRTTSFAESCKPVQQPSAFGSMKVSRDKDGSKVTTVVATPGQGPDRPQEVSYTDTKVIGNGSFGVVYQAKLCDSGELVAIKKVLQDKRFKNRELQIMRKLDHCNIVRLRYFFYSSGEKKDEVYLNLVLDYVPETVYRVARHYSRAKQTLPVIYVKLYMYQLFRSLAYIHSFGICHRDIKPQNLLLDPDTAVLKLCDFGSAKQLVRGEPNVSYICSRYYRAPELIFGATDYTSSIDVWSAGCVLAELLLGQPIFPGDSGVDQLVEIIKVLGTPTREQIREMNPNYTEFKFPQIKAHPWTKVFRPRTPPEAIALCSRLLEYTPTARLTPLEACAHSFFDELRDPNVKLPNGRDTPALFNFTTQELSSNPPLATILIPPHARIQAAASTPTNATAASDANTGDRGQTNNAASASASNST
Activin receptor type-1, sequence (Q04771 whole entry): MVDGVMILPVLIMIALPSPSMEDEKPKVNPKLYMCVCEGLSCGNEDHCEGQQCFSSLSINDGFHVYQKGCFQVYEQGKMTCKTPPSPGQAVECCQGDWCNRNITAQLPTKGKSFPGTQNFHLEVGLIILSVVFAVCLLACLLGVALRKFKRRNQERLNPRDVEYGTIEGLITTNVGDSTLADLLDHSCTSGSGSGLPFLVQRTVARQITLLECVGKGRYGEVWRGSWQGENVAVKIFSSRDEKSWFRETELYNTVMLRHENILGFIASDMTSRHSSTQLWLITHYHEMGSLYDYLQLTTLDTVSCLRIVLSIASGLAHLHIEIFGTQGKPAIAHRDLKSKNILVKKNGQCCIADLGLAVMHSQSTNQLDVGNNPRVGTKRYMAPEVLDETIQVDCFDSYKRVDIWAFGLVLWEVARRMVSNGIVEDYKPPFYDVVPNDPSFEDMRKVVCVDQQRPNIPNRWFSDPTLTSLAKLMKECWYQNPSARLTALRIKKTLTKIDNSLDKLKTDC

- Ki [1]: 0.158 µM (active)
- Ki [2]: 0.126 µM (active)
- Ki [3]: 0.002 µM (active)
- Ki [4]: 0.0631 µM (active)
- Ki [5]: 0.158 µM (active)
- Ki [6]: 3.98 µM (active)
- Ki [7]: 0.2 µM (active)
- Ki [8]: 0.794 µM (active)
SMILES: COCCNc1cc(-c2c[nH]c3ncccc23)cc(Cl)n1

- Ki [9]: > 5.01 µM (inactive)
- Ki [10]: > 5.01 µM (inactive)
- Ki [11]: > 5.01 µM (inactive)
- Ki (Activin receptor type-1): > 3.98 µM (inactive)
- Ki [12]: > 6.31 µM (inactive)
- Ki [5]: > 3.98 µM (inactive)
- Ki [13]: > 3.98 µM (inactive)
- Ki [15]: > 6.31 µM (inactive)
- Ki [16]: 0.398 µM (active)
- Ki [8]: > 6.31 µM (inactive)
- Ki [17]: > 6.31 µM (inactive)
- Ki [18]: > 3.98 µM (inactive)
- Ki [19]: > 5.01 µM (inactive)
- Ki [20]: > 3.98 µM (inactive)
SMILES: CN(C)c1ccc(NC(=O)CC2Nc3ccccc3NC2=O)cc1 (stereo not drawn)
- Ki [14]: > 5.01 µM (inactive)
